From ChEMBL document CHEMBL4346678, “Synthesis and anti-cancer evaluation of folic acid-peptide- paclitaxel conjugates for addressing drug resistance” (Eur J Med Chem, 2019)
Values after ≈ are worked out from the molar mass of the structure shown. Active and inactive are the calls of the source. No cut-off for these calls is given here. Starred links: 1 amine or outer side, 2 acyl side, 3 side chain; linkers in the order of their positions; H or OH if unused. Residues, ends and D or L forms follow the SMILES beside them. *: point of attachment. X1 = CC(=O)O[C@H]1C(=O)[C@@]2(C)[C@H]([C@H](OC(=O)c3ccccc3)[C@]3(O)C[C@H](OC(=O)[C@H](OC(=O)CCCCCN4C(=O)CC(*)C4=O)[C@@H](NC(=O)c4ccccc4)c4ccccc4)C(C)=C1C3(C)C)[C@]1(OC(C)=O)CO[C@@H]1C[C@@H]2O; Pteroyl = Nc1nc2ncc(CNc3ccc(C(=O)*)cc3)nc2c(=O)[nH]1; γGlu = O=C(O)[C@H](CCC(=O)[*:2])N[*:1]

Columns and labels:
HUVEC = assay: Cytotoxicity against HUVEC incubated for 48 hrs by MTT assay; assay type: cell-based; conditions: Homo sapiens
A2780 = assay: Cytotoxicity against human A2780 cells incubated for 48 hrs by MTT assay; assay type: functional, cell-based; conditions: A2780, 48 h
MCF7 [1] = assay: Cytotoxicity against human MCF7 cells incubated for 48 hrs by MTT assay; assay type: functional, cell-based; conditions: MCF7, 48 h
MCF7/PTX [2] = assay: Cytotoxicity against human MCF7/PTX cells incubated for 48 hrs by MTT assay; assay type: functional, cell-based
MCF7/PTX [3] = assay: Induction of apoptosis in human MCF7/PTX cells assessed as early apoptotic cells at 3 uM incubated for 12 hrs by Annexin V-FITC/propidium iodide staining based flow cytometric analysis (reference value: 1.1%); assay type: functional
MCF7/PTX [4] = assay: Induction of membrane disruption in human MCF7/PTX cells at 3 uM incubated for 12 hrs by AO/EB double staining based fluorescence microscopic method; assay type: functional, cell-based
K562 = assay: Cytotoxicity against human K562 cells incubated for 48 hrs by MTT assay; assay type: functional, cell-based; conditions: K562, 48 h
MCF7/PTX [5] = assay: Induction of apoptosis in human MCF7/PTX cells assessed as live cells at 3 uM incubated for 12 hrs by Annexin V-FITC/propidium iodide staining based flow cytometric analysis (reference value: 95.9%); assay type: functional
Erythrocyte = assay: Hemolytic activity in Wistar rat erythrocytes incubated for 1 hr; assay type: ADME, cell-based
MCF7/PTX [6] = assay: Induction of apoptosis in human MCF7/PTX cells assessed as necrotic cells at 3 uM incubated for 12 hrs by Annexin V-FITC/propidium iodide staining based flow cytometric analysis (reference value: 2.1%); assay type: functional
SK-OV-3 = assay: Cytotoxicity against human SKOV3 cells incubated for 48 hrs by MTT assay; assay type: functional, cell-based; conditions: SK-OV-3, 48 h
MCF7/PTX [7] = assay: Induction of membrane disruption in human MCF7/PTX cells incubated for 12 hrs by LDH release assay; assay type: functional, cell-based
MCF7/PTX [8] = assay: Induction of apoptosis in human MCF7/PTX cells assessed as late apoptotic cells at 3 uM incubated for 12 hrs by Annexin V-FITC/propidium iodide staining based flow cytometric analysis (reference value: 0.9%); assay type: functional
[9] = Aqueous solubility of the compound; assay type: physicochemical; conditions: buffer
Tubulin (Sus scrofa) = Tubulin (Sus scrofa) (UniProt P02554+P02550); assay: Induction of porcine brain tubulin polymerization at 3 uM by fluorescence analysis
[10] = Antitumor activity against […] cells xenografted in ICR mouse assessed as reduction in tumor volume at 12 umol/kg administered once every 2 days via peritumoral route for 2 weeks measured for 22 days by caliper analysis relative to control; assay type: functional
[11] = Drug uptake in human MCF7/PTX cells at 1 to 6 uM incubated for 2 hrs using FITC-labelled compound by flow cytometric analysis; assay type: ADME, cell-based
MCF7/PTX [12] = assay: Induction of apoptosis in human MCF7/PTX cells assessed as increase in cleaved caspase 3 level in cytoplasm at 3 uM incubated for 2 hrs by Western blot analysis; assay type: functional, cell-based
MCF7/PTX [13] = assay: Induction of membrane disruption in human MCF7/PTX cells incubated for 12 hrs by AO/EB double-staining based fluorescence microscopic method; assay type: functional, cell-based
MCF7 [14] = assay: Cytotoxicity against human MCF7 cells at 1 to 6 uM incubated for 48 hrs by MTT assay; assay type: functional, cell-based
MCF7/PTX [15] = assay: Cytotoxicity against human MCF7/PTX cells at 1 to 6 uM incubated for 48 hrs by MTT assay; assay type: functional, cell-based
MCF7/PTX [16] = assay: Induction of apoptosis in human MCF7/PTX cells assessed increase in cytochrome-c expression in cytoplasm at 3 uM incubated for 2 hrs by Western blot analysis; assay type: functional, cell-based
MCF7/PTX [17] = assay: Induction of mitochondrial membrane potential loss in human MCF7/PTX cells at 3 uM incubated for 12 hrs by JC1 staining-based confocal microscopic method; assay type: functional, cell-based
MCF7/PTX [18] = assay: Induction of apoptosis in human MCF7/PTX cells assessed as necrotic cells at 3 uM incubated for 12 hrs by Annexin V-FITC/propidium iodide staining based flow cytometric analysis in presence of paclitaxel (reference value: 2.1%); assay type: functional
MCF7/PTX [19] = assay: Induction of apoptosis in human MCF7/PTX cells assessed as live cells at 3 uM incubated for 12 hrs by Annexin V-FITC/propidium iodide staining based flow cytometric analysis in presence of paclitaxel (reference value: 95.9%); assay type: functional
[20] = Half life in Wistar rat plasma at 500 ug/ml measured over 24 hrs at 37 degC by UPLC/MS analysis; assay type: ADME, cell-free
MCF7/PTX [21] = assay: Induction of apoptosis in human MCF7/PTX cells assessed as late apoptotic cells at 3 uM incubated for 12 hrs by Annexin V-FITC/propidium iodide staining based flow cytometric analysis in presence of paclitaxel (reference value: 0.9%); assay type: functional
MCF7/PTX [22] = assay: Induction of apoptosis in human MCF7/PTX cells assessed as early apoptotic cells at 3 uM incubated for 12 hrs by Annexin V-FITC/propidium iodide staining based flow cytometric analysis in presence of paclitaxel (reference value: 1.1%); assay type: functional

Tubulin (Sus scrofa), sequence (P02550 whole entry, looked up): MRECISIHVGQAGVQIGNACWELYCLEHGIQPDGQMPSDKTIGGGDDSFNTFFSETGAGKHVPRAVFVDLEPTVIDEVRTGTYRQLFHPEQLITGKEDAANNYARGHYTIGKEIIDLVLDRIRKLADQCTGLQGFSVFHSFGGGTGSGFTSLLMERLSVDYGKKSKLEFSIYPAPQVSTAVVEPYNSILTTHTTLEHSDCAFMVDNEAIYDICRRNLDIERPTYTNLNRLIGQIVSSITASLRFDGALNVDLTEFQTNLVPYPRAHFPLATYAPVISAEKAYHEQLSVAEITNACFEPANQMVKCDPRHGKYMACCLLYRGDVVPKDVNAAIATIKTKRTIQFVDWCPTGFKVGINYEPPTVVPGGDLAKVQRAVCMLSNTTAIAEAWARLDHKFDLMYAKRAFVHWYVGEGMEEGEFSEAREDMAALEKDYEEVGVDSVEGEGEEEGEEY
Tubulin (Sus scrofa), sequence (P02554 whole entry, looked up): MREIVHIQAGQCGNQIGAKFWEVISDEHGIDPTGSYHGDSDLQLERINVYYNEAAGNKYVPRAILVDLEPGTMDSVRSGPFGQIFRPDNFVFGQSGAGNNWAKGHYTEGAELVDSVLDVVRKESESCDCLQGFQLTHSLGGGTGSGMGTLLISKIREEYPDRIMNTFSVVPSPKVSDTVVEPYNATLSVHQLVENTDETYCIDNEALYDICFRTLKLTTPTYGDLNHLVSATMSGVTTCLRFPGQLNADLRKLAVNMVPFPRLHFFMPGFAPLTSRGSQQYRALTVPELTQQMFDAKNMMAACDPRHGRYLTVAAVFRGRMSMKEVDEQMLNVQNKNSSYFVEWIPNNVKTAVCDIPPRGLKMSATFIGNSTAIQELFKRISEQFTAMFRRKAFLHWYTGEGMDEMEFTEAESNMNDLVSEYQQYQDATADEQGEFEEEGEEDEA

CC(=O)O[C@H]1C(=O)[C@@]2(C)[C@H]([C@H](OC(=O)c3ccccc3)[C@]3(O)C[C@H](OC(=O)[C@H](OC(=O)CCCCCN4C(=O)CC(SC[C@H](NC(=O)[C@H](CCCNC(=N)N)NC(=O)[C@H](CCCNC(=N)N)NC(=O)[C@H](CC(C)C)NC(=O)[C@H](CCCNC(=N)N)NC(=O)[C@H](CCCNC(=N)N)NC(=O)[C@H](Cc5ccccc5)NC(=O)[C@H](Cc5ccccc5)NC(=O)[C@H](CCCNC(=N)N)NC(=O)[C@H](CCCNC(=N)N)NC(=O)[C@H](Cc5ccccc5)NC(=O)[C@H](CCCNC(=N)N)NC(=O)[C@H](CCCNC(=N)N)NC(=O)[C@@H](NC(=O)[C@@H](N)CC(C)C)C(C)C)C(=O)N[C@H](C(=O)N[C@@H](CC(C)C)C(=O)N[C@@H](CC(C)C)C(N)=O)C(C)C)C4=O)[C@@H](NC(=O)c4ccccc4)c4ccccc4)C(C)=C1C3(C)C)[C@]1(OC(C)=O)CO[C@@H]1C[C@@H]2O (stereo not given in full) (H-LVRRFRRFFRRLRRC(X1)VLL-NH2)
IC50 (HUVEC): 37.2 µM | IC50 (A2780): 2.79 µM | IC50 (MCF7 [1]): 1.98 µM | IC50 (MCF7/PTX [2]): 5.53 µM | Activity (MCF7/PTX [3]): 1.7% | Activity (MCF7/PTX [4]): Active | IC50 (K562): 3.82 µM | Activity (MCF7/PTX [5]): 64.7% | Activity (Erythrocyte): Toxic | Activity (MCF7/PTX [6]): 3.6% | IC50 (SK-OV-3): 6.61 µM | Activity (MCF7/PTX [7]): Dose-dependent effect | Activity (MCF7/PTX [8]): 30.2%

CC(=O)O[C@H]1C(=O)[C@@]2(C)[C@H]([C@H](OC(=O)c3ccccc3)[C@]3(O)C[C@H](OC(=O)[C@H](O)[C@@H](NC(=O)c4ccccc4)c4ccccc4)C(C)=C1C3(C)C)[C@]1(OC(C)=O)CO[C@@H]1C[C@@H]2O [PACLITAXEL]
IC50 (HUVEC): 9.39 µM | IC50 (A2780): 2.85 µM | solubility [9]: 4 µg/mL (≈ 4.68 µM) | IC50 (MCF7/PTX [2]): 54.8 µM | Activity (MCF7/PTX [3]): 1.3% | IC50 (K562): 5.8 µM | Activity (Tubulin (Sus scrofa)): Active | Activity (MCF7/PTX [5]): 93.2% | inhibition in vivo at 12 µmol/kg [10]: 49% | Activity (MCF7/PTX [6]): 3.9% | IC50 (SK-OV-3): 6.29 µM | Activity (MCF7/PTX [8]): 1.5%

CC(=O)O[C@H]1C(=O)[C@@]2(C)[C@H]([C@H](OC(=O)c3ccccc3)[C@]3(O)C[C@H](OC(=O)[C@H](OC(=O)CCCCCN4C(=O)CC(SC[C@H](NC(=O)[C@H](CCCCN)NC(=O)[C@H](CCCCN)NC(=O)[C@H](CC(C)C)NC(=O)[C@H](CCCCN)NC(=O)[C@H](CCCNC(=N)N)NC(=O)[C@H](Cc5ccccc5)NC(=O)[C@H](Cc5ccccc5)NC(=O)[C@H](CCCCN)NC(=O)[C@H](CCCCN)NC(=O)[C@H](Cc5ccccc5)NC(=O)[C@H](CCCNC(=N)N)NC(=O)[C@H](CCCCN)NC(=O)[C@@H](NC(=O)[C@H](CC(C)C)NC(=O)CC[C@H](NC(=O)c5ccc(NCc6cnc7nc(N)[nH]c(=O)c7n6)cc5)C(=O)O)C(C)C)C(=O)N[C@H](C(=O)N[C@@H](CC(C)C)C(=O)N[C@@H](CC(C)C)C(N)=O)C(C)C)C4=O)[C@@H](NC(=O)c4ccccc4)c4ccccc4)C(C)=C1C3(C)C)[C@]1(OC(C)=O)CO[C@@H]1C[C@@H]2O (stereo not given in full) ({Pteroyl-γGlu}-LVKRFKKFFRKLKKC(X1)VLL-NH2)
IC50 (HUVEC): 48.6 µM | IC50 (A2780): 1.95 µM | Drug uptake [11]: Active | Activity (MCF7/PTX [12]): Active | Activity (MCF7/PTX [13]): Dose-dependent effect | IC50 (MCF7 [1]): 1.79 µM | Activity (MCF7 [14]): Active | IC50 (MCF7/PTX [2]): 4.54 µM | Activity (MCF7/PTX [3]): 1.1% | Activity (MCF7/PTX [4]): Active | IC50 (K562): 5.38 µM | Activity (MCF7/PTX [5]): 56.3% | Activity (MCF7/PTX [15]): Active | Activity (Erythrocyte): Toxic | Activity (MCF7/PTX [6]): 8% | IC50 (SK-OV-3): 5.92 µM | Activity (MCF7/PTX [7]): Dose-dependent effect | Activity (MCF7/PTX [16]): Active | Activity (MCF7/PTX [8]): 34.6% | Activity (MCF7/PTX [17]): Active

CC(=O)O[C@H]1C(=O)[C@@]2(C)[C@H]([C@H](OC(=O)c3ccccc3)[C@]3(O)C[C@H](OC(=O)[C@H](OC(=O)CCCCCN4C(=O)CC(SC[C@H](NC(=O)[C@H](CCCCN)NC(=O)[C@H](CCCCN)NC(=O)[C@H](CC(C)C)NC(=O)[C@H](CCCCN)NC(=O)[C@H](CCCNC(=N)N)NC(=O)[C@H](Cc5ccccc5)NC(=O)[C@H](Cc5ccccc5)NC(=O)[C@H](CCCCN)NC(=O)[C@H](CCCCN)NC(=O)[C@H](Cc5ccccc5)NC(=O)[C@H](CCCNC(=N)N)NC(=O)[C@H](CCCCN)NC(=O)[C@@H](NC(=O)[C@@H](N)CC(C)C)C(C)C)C(=O)N[C@H](C(=O)N[C@@H](CC(C)C)C(=O)N[C@@H](CC(C)C)C(N)=O)C(C)C)C4=O)[C@@H](NC(=O)c4ccccc4)c4ccccc4)C(C)=C1C3(C)C)[C@]1(OC(C)=O)CO[C@@H]1C[C@@H]2O (stereo not given in full) (H-LVKRFKKFFRKLKKC(X1)VLL-NH2)
IC50 (HUVEC): 31.6 µM | IC50 (A2780): 2.69 µM | Drug uptake [11]: Active | IC50 (MCF7 [1]): 2.15 µM | IC50 (MCF7/PTX [2]): 6.11 µM | Activity (MCF7/PTX [3]): 2.2% | Activity (MCF7/PTX [4]): Active | IC50 (K562): 5.9 µM | Activity (MCF7/PTX [5]): 74.4% | Activity (MCF7/PTX [15]): inactive | Activity (Erythrocyte): Toxic | Activity (MCF7/PTX [6]): 3.2% | IC50 (SK-OV-3): 7.17 µM | Activity (MCF7/PTX [7]): Dose-dependent effect | Activity (MCF7/PTX [8]): 20.2%

H-LVKRFKKFFRKLKKCVLL-NH2
IC50 (HUVEC): 40.2 µM | IC50 (A2780): 13.6 µM | IC50 (MCF7 [1]): 12.3 µM | IC50 (MCF7/PTX [2]): 15.2 µM | Activity (MCF7/PTX [3]): 1.6% | IC50 (K562): 13.7 µM | Activity (MCF7/PTX [5]): 91.1% | Activity (MCF7/PTX [6]): 4.6% | IC50 (SK-OV-3): 14.7 µM | Activity (MCF7/PTX [8]): 2.6%

H-LVRRFRRFFRRLRRCVLL-NH2
IC50 (HUVEC): 44.5 µM | IC50 (A2780): 11.5 µM | Activity (MCF7/PTX [18]): 5.8% | IC50 (MCF7 [1]): 8.61 µM | IC50 (MCF7/PTX [2]): 17.1 µM | Activity (MCF7/PTX [3]): 1.7% | IC50 (K562): 9.49 µM | Activity (MCF7/PTX [19]): 76.7% | Activity (MCF7/PTX [5]): 83.5% | half-life at 500 ug/ml [20]: 48 min | Activity (MCF7/PTX [21]): 15.9% | Activity (MCF7/PTX [6]): 5.7% | Activity (MCF7/PTX [22]): 1.7% | IC50 (SK-OV-3): 13.6 µM | Activity (MCF7/PTX [8]): 9%
